Measured values taken from patent US7994196B2, “Indazole compound and pharmaceutical use thereof” (Mitsubishi Tanabe Pharma Corporation, priority 2004, dated 2011).

Tested on: MMP-9 production
Assay: Determination of MMP-9 Production Inhibitory Activity (PMA-stimulated HEC3 cells, gelatin zymography)
Format: cell-based
Conditions: Homo sapiens, Endothelial cell, 24 h, immortalized human vascular endothelial cells HEC3, PMA 10^-7 M stimulation, test substance at 10, 2, 0.4 and 0.08 μM, read-out: IC50 (MMP-9 production inhibitory rate)
Experimental: Immortalized human vascular endothelial cells HEC3 (supplied by Prof. Iijima of Nagoya University) were subcultured in RPMI1640 medium (Sigma Ltd.) containing 10% fetal calf serum.
The HEC3 cells (5×10^4 cells/well) were plated on a 24-well plate, and cultured in RPMI1640 medium containing 10% fetal calf serum for 24 hr. Each well was washed once with serum-free RPMI1640 medium. Then, RPMI1640 medium (250 μl/well) containing 0.05% fetal calf serum was added to each well, and the cells were further cultured for 2 hr.
The supernatant was removed, and the test substances (Example compounds shown in Table 1) diluted to various concentrations were added and incubated for 1 hr in 0.05% serum-containing RPMI1640 medium and the supernatant was removed again. A medium containing a test substance having the same concentration as in the pre-treatment and PMA (10^−7 M), which is a stimulant, was added at 250 μl/well, and the cells were further cultured for 24 hr.
After completion of the culture, water (50 μl) and 25 μl of SDS buffer (240 mM Tris-HCl (pH 6.8), 8% SDS, 40% glycerol) were added to the culture supernatant (25 μl), and the mixture (10 μl) was electrophoresed on a 7.5% polyacrylamide gel containing 0.1% gelatin.
After the electrophoresis, the gel was washed with Tris-HCl buffer (pH 7.5) containing 0.5% Triton X-100 (Sigma Ltd.) for 1 hr. The gel was immersed in an activation buffer (150 mM NaCl, 50 mM Tris-HCl (pH 7.5), 10 mM CaCl2) at 37° C. for 18 hr to activate MMP-9, and then stained with CBB. The obtained MMP-9 band was converted to numerical values by a densitometer (ATTO. Ltd.).
The MMP-9 production inhibitory rate by the test substance was calculated by the following equation. MMP-9 production inhibitory rate=100−100×{(test substance addition value−non-stimulation value)/(PMA stimulation value−non-stimulation value)}
The MMP-9 production inhibitory rates of the test substance at 10, 2, 0.4 and 0.08 μM were calculated, and IC50 value of the each test substance was determined using an analysis soft (RegExcel).

| SMILES | IC50 |
| --- | --- |
| Cc1ccsc1C1=CCN(C(=O)Nc2n[nH]c3ccccc23)CC1 [Ex. 59] | 210 nM |
| O=C(Nc1n[nH]c2ccccc12)N1CC=C(c2cccs2)CC1 [Ex. 60] | 130 nM |
| O=C(Nc1n[nH]c2ccccc12)N1CC=C(c2cccc(C(F)(F)F)c2)CC1 [Ex. 61] | 100 nM |
| COc1ccc(C2=CCN(C(=O)Nc3n[nH]c4ccccc34)CC2)cc1OC [Ex. 62] | 690 nM |
| CN(C)c1cccc(C2=CCN(C(=O)Nc3n[nH]c4ccccc34)CC2)c1 [Ex. 63] | 360 nM |
| O=C(Nc1n[nH]c2ccccc12)N1CCc2c([nH]c3ccccc23)C1 [Ex. 64] | 120 nM |
| Cn1c2c(c3ccccc31)CCN(C(=O)Nc1n[nH]c3ccccc13)C2 [Ex. 65] | 160 nM |
| COCCn1c2c(c3ccccc31)CCN(C(=O)Nc1n[nH]c3ccccc13)C2 [Ex. 66] | 630 nM |
| O=C(Nc1n[nH]c2ccccc12)N1CCc2c([nH]c3ccc(C(F)(F)F)cc23)C1 [Ex. 69] | 160 nM |
| O=C(Nc1n[nH]c2ccccc12)N1CCc2c([nH]c3ccc(F)cc23)C1 [Ex. 70] | 60 nM |
| O=C(Nc1n[nH]c2ccccc12)N1CCc2c([nH]c3cc(F)ccc23)C1 [Ex. 71] | 140 nM |
| O=C(Nc1n[nH]c2ccccc12)N1CCc2c([nH]c3ccc(Cl)cc23)C1 [Ex. 72] | 100 nM |
| COc1ccc2[nH]c3c(c2c1)CCN(C(=O)Nc1n[nH]c2ccccc12)C3 [Ex. 73] | 90 nM |
| O=C(Nc1n[nH]c2ccccc12)N1CCc2c([nH]c3ccc(O)cc23)C1 [Ex. 74] | 150 nM |
| O=C(Nc1n[nH]c2ccccc12)N1CCc2c([nH]c3cc(Cl)ccc23)C1 [Ex. 75] | 110 nM |
| O=C(Nc1n[nH]c2ccccc12)N1CCc2c([nH]c3cc(C(F)(F)F)ccc23)C1 [Ex. 76] | 240 nM |
| O=C(Nc1n[nH]c2ccccc12)N1CCc2c([nH]c3cccc(F)c23)C1 [Ex. 77] | 50 nM |
| O=C(Nc1n[nH]c2ccccc12)N1CCc2c([nH]c3cccc(Cl)c23)C1 [Ex. 78, 5-chloro-1,3,4,9-tetrahydro-β-carboline-2-carboxylic acid (1H-indazol-3-yl)amide] | 280 nM |
| Cc1cccc2c3c([nH]c12)CN(C(=O)Nc1n[nH]c2ccccc12)CC3 [Ex. 79, 8-methyl-1,3,4,9-tetrahydro-β-carboline-2-carboxylic acid (1H-indazol-3-yl)amide] | 160 nM |
| O=C(Nc1n[nH]c2ccccc12)N1CCc2c(sc3ccccc23)C1 [Ex. 80, 3,4-dihydro[1]benzothieno[2,3-c]pyridine-2-carboxylic acid (1H-indazol-3-yl)amide] | 250 nM |

| SMILES | IC50 |
| --- | --- |
| Cc1ccc2[nH]c3c(c2c1)CCN(C(=O)Nc1n[nH]c2ccccc12)C3 [Ex. 81, 6-methyl-1,3,4,9-tetrahydro-β-carboline-2-carboxylic acid (1H-indazol-3-yl)amide] | 100 nM |
| O=C(Nc1n[nH]c2ccccc12)N1CCc2c([nH]c3cc(Cl)c(F)cc23)C1 [Ex. 82, 7-chloro-6-fluoro-1,3,4,9-tetrahydro-β-carboline-2-carboxylic acid (1H-indazol-3-yl)amide] | 100 nM |
| O=C(Nc1n[nH]c2ccccc12)N1CCc2c([nH]c3cc(Cl)c(C(F)(F)F)cc23)C1 [Ex. 83, 7-chloro-6-(trifluoromethyl)-1,3,4,9-tetrahydro-β-carboline-2-carboxylic acid (1H-indazol-3-yl)amide] | 420 nM |
| O=C(Nc1n[nH]c2ccccc12)N1CCN(c2ccc(Cl)c(C(F)(F)F)c2)CC1 [Ex. 93, 4-[4-chloro-3-(trifluoromethyl)phenyl]-1-piperazinecarboxylic acid (1H-indazol-3-yl)amide] | 170 nM |
| O=C(Nc1n[nH]c2ccccc12)N1CCN(c2ccc(F)c(C(F)(F)F)c2)CC1 [Ex. 94, 4-[4-fluoro-3-(trifluoromethyl)phenyl]-1-piperazinecarboxylic acid (1H-indazol-3-yl)amide] | 340 nM |
| COc1ccc(N2CCN(C(=O)Nc3n[nH]c4ccccc34)CC2)cc1C(F)(F)F [Ex. 95, 4-[4-methoxy-3-(trifluoromethyl)phenyl]-1-piperazinecarboxylic acid (1H-indazol-3-yl)amide] | 510 nM |
| O=C(Nc1n[nH]c2ccccc12)N1CCN(c2cc(F)cc(C(F)(F)F)c2)CC1 [Ex. 97, 4-[3-fluoro-5-(trifluoromethyl)phenyl]-1-piperazinecarboxylic acid (1H-indazol-3-yl)amide] | 210 nM |
| O=C(Nc1n[nH]c2ccccc12)N1CCN(c2ccc(Cl)c(Cl)c2)CC1 [Ex. 98, 4-(3,4-dichlorophenyl)-1-piperazinecarboxylic acid (1H-indazol-3-yl)amide] | 220 nM |
| O=C(Nc1n[nH]c2ccccc12)N1CCN(c2cc(C(F)(F)F)ccc2Cl)CC1 [Ex. 99, 4-[2-chloro-5-(trifluoromethyl)phenyl]-1-piperazinecarboxylic acid (1H-indazol-3-yl)amide] | 610 nM |
| O=C(Nc1n[nH]c2ccccc12)N1CCN(c2cccc(C(F)(F)F)c2)CC1 [Ex. 100, 4-[3-(trifluoromethyl)phenyl]-1-piperazinecarboxylic acid (1H-indazol-3-yl)amide] | 230 nM |
| O=C(Nc1n[nH]c2ccccc12)N1CCc2c(c(=O)oc3ccccc23)C1 [Ex. 103, 5-oxo-1,5-dihydro-2H-chromeno[3,4-c]pyridine-3-carboxylic acid (1H-indazol-3-yl)amide] | 60 nM |
| O=C(Nc1n[nH]c2ccccc12)N1CCc2c(c(=O)[nH]c3ccccc23)C1 [Ex. 104, 5-oxo-1,4,5,6-tetrahydrobenzo[c]-2,7-naphthyridine-3-carboxylic acid (1H-indazol-3-yl)amide] | 10 nM |
| O=C(Nc1n[nH]c2ccccc12)N1CCn2c(nc3ccccc32)C1 [Ex. 105, 3,4-dihydropyrazino[1,2-a]benzimidazole-2-carboxylic acid (1H-indazol-3-yl)amide] | 40 nM |
| CN(C)CC1c2[nH]c3ccccc3c2CCN1C(=O)Nc1n[nH]c2ccccc12 (stereo not drawn) [Ex. 108, 1-[(dimethylamino)methyl]-1,3,4,9-tetrahydro-β-carboline-2-carboxylic acid (1H-indazol-3-yl)amide] | 670 nM |
| O=C(Nc1n[nH]c2ccccc12)N1CCc2c([nH]c(=O)c3ccccc23)C1 [Ex. 109, 6-oxo-1,4,5,6-tetrahydrobenzo[c]-1,7-naphthyridine-3-carboxylic acid (1H-indazol-3-yl)amide] | 140 nM |
| O=C(Nc1n[nH]c2ccccc12)N1CCC(c2cccc(C(F)(F)F)c2)CC1 [Ex. 112, 4-[3-(trifluoromethyl)phenyl]piperidine-1-carboxylic acid (1H-indazol-3-yl)amide] | 700 nM |
| CC1CN(C(=O)Nc2n[nH]c3ccccc23)CCN1c1ccc(Cl)c(C(F)(F)F)c1 (stereo not drawn) [Ex. 117] | 930 nM |
| O=C(Nc1n[nH]c2ccccc12)N1CCC(F)(c2ccc(Cl)c(C(F)(F)F)c2)CC1 [Ex. 123, 4-[4-chloro-3-(trifluoromethyl)phenyl]-4-fluoropiperidine-1-carboxylic acid (1H-indazol-3-yl)amide] | 730 nM |
| Cc1ccc(F)c(C2(O)CCN(C(=O)Nc3n[nH]c4ccccc34)CC2)c1 [Ex. 130, 4-(2-fluoro-5-methylphenyl)-4-hydroxy-1-piperidinecarboxylic acid (1H-indazol-3-yl)amide] | 620 nM |
